In ChEMBL document CHEMBL5523687, “Pentafluorosulfanyl-substituted biaryl derivatives as MATE-type transporter inhibitors targeting drug-resistant bacteria” (Bioorg Med Chem, 2024):
Converted amounts (≈) assume the structure as drawn. The source made the active and inactive calls. The rule behind the calls is not given here.

Tests used:
Escherichia coli [1] = test: Inhibition of MATE-type HmrM in norfloxacin-resistant Escherichia coli KAM32 assessed as norfloxacin antibacterial activity efficacy at 30 uM measured for 18 hrs incubation by CLSI based microplate reader analysis relative to norfloxacin alone
Escherichia coli [2] = test: Inhibition of MATE-type HmrM in norfloxacin-resistant Escherichia coli KAM32 assessed as norfloxacin antibacterial activity by measuring norfloxacin MIC measured for 18 hrs incubation by CLSI based microplate reader analysis
[3] = Inhibition of MATE-type HmrM (unknown origin); set-up: species or system Bacteria
Escherichia coli [4] = test: Antibacterial activity against Escherichia coli KAM32 harboring PBR322 hmrM assessed as effect on bacterial growth at 10 uM measured for 30 hrs by microplate reader analysis; format: functional, organism-based
Bacteria = test: Inhibition of MATE-type HmrM (unknown origin) at 100 uM relative to control
Escherichia coli [5] = test: Antibacterial activity against Norfloxacin resistant Escherichia coli KAM32 harboring PBR322 assessed as inhibition of bacterial growth by measuring efficacy at 30 uM measured for 18 hrs by CLSI based analysis relative to control; format: functional
Escherichia coli [6] = test: Antibacterial activity against Norfloxacin sensitive Escherichia coli KAM32 harboring PBR322 assessed as reduction in bacterial growth measured for 18 hrs by CLSI based analysis; format: functional
Escherichia coli [7] = test: Antibacterial activity against Norfloxacin sensitive Escherichia coli KAM32 harboring PBR322 assessed as inhibition of bacterial growth by measuring efficacy at 30 uM measured for 18 hrs by CLSI based analysis relative to control; format: functional
Escherichia coli [8] = test: Antibacterial activity against Norfloxacin resistant Escherichia coli KAM32 harboring PBR322 hmrM assessed as reduction in bacterial growth measured for 18 hrs by CLSI based analysis; format: functional

SMILES	Efficacy (Escherichia coli [1])	MIC (Escherichia coli [2])	other results
CN(C)/C(=N\C#N)N(C)CCCCCc1cccc(Cl)c1	71%	0.026 µg/mL (≈ 0.0847 µM)	–
CN/C(=N\C#N)NCCCCCc1cccc(Cl)c1	57%	0.032 µg/mL (≈ 0.115 µM)	–
CN/C(=N\C#N)NCCCCCc1cccc(C#N)c1	57%	0.032 µg/mL (≈ 0.119 µM)	–
CN/C(=N\C#N)NCCCCCc1cccc(S(F)(F)(F)(F)F)c1	71%	0.026 µg/mL (≈ 0.0702 µM)	–
OCCCCCc1cccc(Cl)c1	0%	0.056 µg/mL (≈ 0.282 µM)	–
CN/C(=N\C#N)NCCCCCc1cccc(C)c1	57%	0.032 µg/mL (≈ 0.124 µM)	–
CN/C(=N\C#N)NCCCC#Cc1cccc(Cl)c1	71%	0.026 µg/mL (≈ 0.0946 µM)	–
Clc1cccc(CCCCCN2CCOCC2)c1	0%	0.056 µg/mL (≈ 0.209 µM)	–
CN/C(=N\C#N)NCCC/C=C/c1cccc(Cl)c1	71%	0.026 µg/mL (≈ 0.0939 µM)	–
CN/C(=N\C#N)NCc1ccccc1-c1cccc(Cl)c1	38%	0.04 µg/mL (≈ 0.134 µM)	–
CN/C(=N\C#N)NCCCCCc1cccc(S(C)(=O)=O)c1	38%	0.04 µg/mL (≈ 0.124 µM)	–
C#Cc1cccc(CCCCCN/C(=N/C#N)NC)c1	57%	0.04 µg/mL (≈ 0.149 µM)	–
Clc1cccc(CCCCCn2ccnc2)c1	38%	0.04 µg/mL (≈ 0.161 µM)	–
CN/C(=N\C#N)NCCCCCc1cccc(NS(C)(=O)=O)c1	38%	0.04 µg/mL (≈ 0.119 µM)	–
CN/C(=N\C#N)NCCCCc1cccc(Cl)c1	38%	0.04 µg/mL (≈ 0.151 µM)	–
CN(C)/C(=N\C#N)N(C)Cc1ccc(-c2cccc(S(F)(F)(F)(F)F)c2)cc1	100%	0.014 µg/mL (≈ 0.0335 µM)	EC50 [3]: 1.8 µM; Activity (Escherichia coli [4]): inactive

SMILES	Efficacy (Escherichia coli [1])	MIC (Escherichia coli [2])	other results
CN/C(=N\C#N)NCCCC#Cc1cccc(S(F)(F)(F)(F)F)c1	100%	0.02 µg/mL (≈ 0.0546 µM)	–
CN/C(=N\C#N)NCCCCCc1cccc(Br)c1	19%	0.048 µg/mL (≈ 0.148 µM)	–
CN/C(=N\C#N)NCCC[C@@H]1C[C@@H]1c1cccc(Cl)c1	57%	0.032 µg/mL (≈ 0.11 µM)	–
CN/C(=N\C#N)NCc1cccc(-c2cccc(Cl)c2)c1	38%	0.04 µg/mL (≈ 0.134 µM)	–
CN(C)/C(=N\C#N)N(C)CCCC#Cc1cccc(Cl)c1	100%	0.014 µg/mL (≈ 0.0462 µM)	EC50 [3]: 6.8 µM
CN/C(=N/C#N)NCC#CC#Cc1cccc(Cl)c1	0%	0.056 µg/mL (≈ 0.207 µM)	–
CN/C(=N\C#N)NCCCCCc1cccc(I)c1	0%	0.056 µg/mL (≈ 0.151 µM)	–
CN/C(=N\C#N)NCCC[C@H]1C[C@@H]1c1cccc(Cl)c1	57%	0.032 µg/mL (≈ 0.11 µM)	–
CN/C(=N\C#N)NCCCCCc1cccc(F)c1	38%	0.04 µg/mL (≈ 0.152 µM)	EC50 [3]: > 30 µM; Efficacy (Bacteria): 92%
CN(C)/C(=N\C#N)N(C)CCCC#Cc1cccc(S(F)(F)(F)(F)F)c1	100%	0.014 µg/mL (≈ 0.0355 µM)	EC50 [3]: 6.8 µM
CN/C(=N/C#N)NCc1ccc(-c2cccc(Cl)c2)cc1	100%	0.014 µg/mL (≈ 0.0469 µM)	–
CCn1cc(C(=O)O)c(=O)c2cc(F)c(N3CCNCC3)cc21 [NORFLOXACIN]	–	–	Efficacy (Escherichia coli [5]): 0%; MIC (Escherichia coli [6]): 0.014 µg/mL (≈ 0.0438 µM); Efficacy (Escherichia coli [7]): 100%; MIC (Escherichia coli [8]): 0.056 µg/mL (≈ 0.175 µM)
CN/C(=N\C#N)NCCC/C=C\c1cccc(Cl)c1	71%	0.026 µg/mL (≈ 0.0939 µM)	–
CN(C)/C(=N\C#N)N(C)Cc1ccc(-c2cccc(Cl)c2)cc1	100%	0.014 µg/mL (≈ 0.0428 µM)	EC50 [3]: 4 µM
COCCCCCc1cccc(Cl)c1	0%	0.056 µg/mL (≈ 0.263 µM)	–
CN/C(=N\C#N)NCCCNC(=O)c1cccc(Cl)c1	0%	0.056 µg/mL (≈ 0.191 µM)	–
